Data: patent US20230365554A1, “SUBSTITUTED PYRROLO-PYRIDINONE DERIVATIVES AND THERAPEUTIC USES THEREOF” (The Broad Institute, Inc., priority 2020, published 2023)

Legend:
human CSNK1A1 = human CSNK1A1 (Homo sapiens (Human), UniProt P48729); experiment: CSNK1A1 Assay 2 (ADP-Glo, 1 μM ATP); type: biochemical; details: median, Table 2, read-out: CSNK1A1 Assay 2 IC50 [mol/l] (median)
Protocol: CSNK1A1-inhibitory activity of compounds of the present invention in presence of 1 μM adenosine-tri-phosphate (ATP) was quantified employing the CSNK1A1 assay as described in the following paragraphs. In essence, the enzyme activity is measured by quantification of the adenosine-di-phosphate (ADP), which is generated as a co-product of the enzyme reaction, via the “ADP-Glo™ Kinase Assay” kit from the company Promega. This detection system works as follows: In a first step the ATP not consumed in the kinase reaction is quantitatively converted to cAMP employing an adenylate cyclase (“ADP-Glo-reagent”), then the adenylate cyclase is stopped and the ADP generated in the kinase reaction converted to ATP which generates in a luciferase-based reaction a glow-luminescence signal (“Kinase Detection Reagent”).
(§1) Recombinant fusion protein of N-terminal Glutathion-S-Transferase (GST) and full-length human CSNK1A1, expressed by baculovirus infected insect cells and purified via Glutathion affinity chromatography, was purchased from Life Technologies (product no. PV4174) and used as enzyme. As substrate for the kinase reaction the biotinylated peptide biotin-Ahx-KRRRAL-pS-VASLPGL (C-terminus in amide form) was used which can be purchased e.g. from the company Biosyntan (Berlin-Buch, Germany).
For the assay 50 nl of a 100 fold concentrated solution of the test compound in DMSO was pipetted into a white 1536-well microtiter plate (Greiner Bio-One, Frickenhausen, Germany), 2 μL of a solution of CSNK1A1 in aqueous assay buffer [50 mM HEPES pH 7.5, 10% (v/v) glycerol, 10 mM MgCl2, 50 mM NaCl, 1 mM dithiothreitol, 0.01% (w/v) bovine serum albumin, 0.01% (v/v) Triton X-100] were added and the mixture was incubated for 15 min at 22° C. to allow pre-binding of the test compounds to the enzyme before the start of the kinase reaction. Then the kinase reaction was started by the addition of 3 μL of a solution of ATP (1.67 μM=>final conc. in the 5 μL assay volume is 1 μM) and peptide substrate (50 μM=>final conc. in the 5 μL assay volume is 30 μM) in assay buffer and the resulting mixture was incubated for a reaction time of 30 min at 22° C. The concentration of CSNK1A1 was adjusted depending of the activity of the enzyme lot and was chosen appropriate to have the assay in the linear range, a typical concentrations are about 0.0375 ng/μL. The reaction was stopped by the addition of 2.5 μL of “ADP-Glo-reagent” (1:1.5 fold diluted with water) and the resulting mixture was incubated at 22° C. for 1 h to convert the ATP not consumed in the kinase reaction completely […]. Subsequently 2.5 μL of the “kinase detection reagent” (1.2 fold more concentrated than recommended by the producer) were added, the resulting mixture was incubated at 22° C. for 1 h and then the luminescence measured with a suitable measurement instrument (e.g. Viewlux™ from Perkin-Elmer). The amount of emitted light was taken as a measure for the amount of ADP generated and thereby for the activity of the CSNK1A1.
(§2) The data were normalised (enzyme reaction without inhibitor=0% inhibition, all other assay components but no enzyme=100% inhibition).

human CSNK1D = human CSNK1D (Homo sapiens (Human), UniProt P48730); experiment: CSNK1D assay (ADP-Glo, 1 μM ATP); type: biochemical; details: median, Table 2, read-out: CSNK1D IC50 [mol/l] (median)
Protocol: CSNK1D-inhibitory activity of compounds of the present invention in presence of 1 μM adenosine-tri-phosphate (ATP) was quantified employing the CSNK1D assay as described in the following paragraphs. In essence, the enzyme activity is measured by quantification of the adenosine-di-phosphate (ADP), which is generated as a co-product of the enzyme reaction, via the “ADP-Glo™ Kinase Assay” kit from the company Promega. This detection system works as follows: In a first step the ATP not consumed in the kinase reaction is quantitatively converted to cAMP employing an adenylate cyclase (“ADP-Glo-reagent”), then the adenylate cyclase is stopped and the ADP generated in the kinase reaction converted to ATP which generates in a luciferase-based reaction a glow-luminescence signal (“Kinase Detection Reagent”).
as §1, with “CSNK1D,” for “CSNK1A1,”, “PV3665)” for “PV4174)”, “Btn-Ahx-SGSEGDSESGEEEG” for “biotin-Ahx-KRRRAL-pS-VASLPGL”
For the assay 50 nl of a 100 fold concentrated solution of the test compound in DMSO was pipetted into a white 1536-well microtiter plate (Greiner Bio-One, Frickenhausen, Germany), 2 μL of a solution of CSNK1D in aqueous assay buffer [50 mM HEPES pH 7.5, 10% (v/v) glycerol, 10 mM MgCl2, 50 mM NaCl, 1 mM dithiothreitol, 0.01% (w/v) bovine serum albumin, 0.01% (v/v) Triton X-100] were added and the mixture was incubated for 15 min at 22° C. to allow pre-binding of the test compounds to the enzyme before the start of the kinase reaction. Then the kinase reaction was started by the addition of 3 μL of a solution of ATP (1.67 μM=>final conc. in the 5 μL assay volume is 1 μM) and peptide substrate (50 μM=>final conc. in the 5 μL assay volume is 30 μM) in assay buffer and the resulting mixture was incubated for a reaction time of 30 min at 22° C. The concentration of CSNK1D was adjusted depending of the activity of the enzyme lot and was chosen appropriate to have the assay in the linear range, a typical concentration is about 0.5 ng/μL. The reaction was stopped by the addition of 2.5 μL of “ADP-Glo-reagent” (1:1.5 fold diluted with water) and the resulting mixture was incubated at 22° C. for 1 h to convert the ATP not consumed in the kinase reaction completely […]. Subsequently 2.5 μL of the “kinase detection reagent” (1.2 fold more concentrated than recommended by the producer) were added, the resulting mixture was incubated at 22° C. for 1 h and then the luminescence measured with a suitable measurement instrument (e.g. Viewlux™ from Perkin-Elmer). The amount of emitted light was taken as a measure for the amount of ADP generated and thereby for the activity of the CSNK1D.
as §2

human CSNK1D, sequence (P48730 whole entry): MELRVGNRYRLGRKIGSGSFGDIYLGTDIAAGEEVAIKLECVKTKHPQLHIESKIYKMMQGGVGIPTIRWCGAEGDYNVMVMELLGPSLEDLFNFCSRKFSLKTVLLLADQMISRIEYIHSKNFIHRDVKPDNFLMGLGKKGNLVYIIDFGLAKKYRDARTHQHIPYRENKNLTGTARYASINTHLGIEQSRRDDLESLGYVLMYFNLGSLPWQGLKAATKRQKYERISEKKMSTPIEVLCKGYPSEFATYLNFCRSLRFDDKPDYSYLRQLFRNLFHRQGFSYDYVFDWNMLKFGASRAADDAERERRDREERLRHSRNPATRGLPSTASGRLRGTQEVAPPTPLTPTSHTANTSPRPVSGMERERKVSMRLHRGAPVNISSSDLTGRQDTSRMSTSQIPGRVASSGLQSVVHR
human CSNK1A1, sequence (P48729 whole entry): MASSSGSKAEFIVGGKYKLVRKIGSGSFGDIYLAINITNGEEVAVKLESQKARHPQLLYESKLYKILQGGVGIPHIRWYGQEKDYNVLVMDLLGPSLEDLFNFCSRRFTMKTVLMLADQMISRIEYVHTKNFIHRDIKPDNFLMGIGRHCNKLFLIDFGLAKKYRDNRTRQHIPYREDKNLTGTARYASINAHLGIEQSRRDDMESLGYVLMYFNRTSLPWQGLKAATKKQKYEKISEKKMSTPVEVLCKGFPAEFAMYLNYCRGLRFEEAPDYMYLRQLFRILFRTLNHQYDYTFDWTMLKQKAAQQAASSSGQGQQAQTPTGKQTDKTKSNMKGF

Row | Structure (SMILES) | IC50 (human CSNK1A1) [nM] | IC50 (human CSNK1D) [nM]
1 | CN1CC(CC(F)F)c2[nH]c(-c3ccnc(NC(=O)Cc4ccc(F)cc4)c3)c(Nc3ccccc3)c2C1=O (racemic) [Example 42, N-{4-[3-anilino-7-(2,2-difluoroethyl)-5-methyl-4-oxo-4,5,6,7-tetrahydro-1H-pyrrolo[3,2-c]pyridin-2-yl]pyridin-2-yl}-2-(4-fluorophenyl)acetamide] | 1.8 | 4.1
2 | Cc1cn(C)c(=O)c2c(Nc3ccccc3)c(-c3ccnc(NC(=O)C(CC(F)F)c4ccc(F)cc4)c3)[nH]c12 (single isomer, unassigned) [Example 12, N-[4-(3-anilino-5,7-dimethyl-4-oxo-4,5-dihydro-1H-pyrrolo[3,2-c]pyridin-2-yl)pyridin-2-yl]-4,4-difluoro-2-(4-fluorophenyl)butanamide] | 180 | 160
3 | O=C1N[C@@H]2CCC[C@@H]2c2[nH]c(-c3ccnc(NC(=O)C(CC(F)F)c4ccc(F)cc4)c3)c(Nc3ccccc3)c21 (single isomer, unassigned; (-)) [Example 24, (−)-(2R or S)—N-{4-[cis-3-anilino-4-oxo-1,4,5,5a,6,7,8,8a-octahydrocyclopenta[b]pyrrolo[2,3-d]pyridin-2-yl]pyridin-2-yl}-4,4-difluoro-2-(4-fluorophenyl)butanamide] | 30 | 24
4 | CN1CC(CC2CC2)c2[nH]c(-c3ccnc(NC(=O)Cc4ccc(F)cc4)c3)c(Nc3cscn3)c2C1=O (single isomer, unassigned) [Example 50, N-{4-[(7R or S)-7-(cyclopropylmethyl)-5-methyl-4-oxo-3-(1,3-thiazol-4-ylamino)-4,5,6,7-tetrahydro-1H-pyrrolo[3,2-c]pyridin-2-yl]pyridin-2-yl}-2-(4-fluorophenyl)acetamide] | 5.1 | 9.9
5 | CC1CN(C)C(=O)c2c1[nH]c(-c1ccnc(NC(=O)Cc3ccc(F)cc3)c1)c2Nc1ccccc1 (single isomer, unassigned; (+)) [Example 8, (+)-N-{4-[3-anilino-5,7-dimethyl-4-oxo-4,5,6,7-tetrahydro-1H-pyrrolo[3,2-c]pyridin-2-yl]pyridin-2-yl}-2-(4-fluorophenyl)acetamide] | 12 | 26
6 | O=C1N[C@@H]2CCC[C@@H]2c2[nH]c(-c3ccnc(NC(=O)C(CC(F)F)c4ccc(F)cc4)c3)c(Nc3ccccc3)c21 (single isomer, unassigned; (+)) [Example 25, (+)-(2R or S)—N-{4-[cis-3-anilino-4-oxo-1,4,5,5a,6,7,8,8a-octahydrocyclopenta[b]pyrrolo[2,3-d]pyridin-2-yl]pyridin-2-yl}-4,4-difluoro-2-(4-fluorophenyl)butanamide] | 2.3 | 3.1
7 | CN1CC(CC(F)F)c2[nH]c(-c3ccnc(NC(=O)Cc4ccc(F)cc4)c3)c(Nc3ccccc3)c2C1=O (single isomer, unassigned) [Example 44, N-{4-[3-anilino-7-(2,2-difluoroethyl)-5-methyl-4-oxo-4,5,6,7-tetrahydro-1H-pyrrolo[3,2-c]pyridin-2-yl]pyridin-2-yl}-2-(4-fluorophenyl)acetamide] | 3.3 | 5.9
8 | CCc1c[nH]c(=O)c2c(Nc3ccccc3)c(-c3ccnc(NC(=O)C(CC(F)F)c4ccc(F)cc4)c3)[nH]c12 (racemic) [Example 5, N-[4-(3-anilino-7-ethyl-4-oxo-4,5-dihydro-1H-pyrrolo[3,2-c]pyridin-2-yl)pyridin-2-yl]-4,4-difluoro-2-(4-fluorophenyl)butanamide] | 7.2 | 6.4
9 | CCC1CNC(=O)c2c1[nH]c(-c1ccnc(NC(=O)Cc3ccc(F)cc3)c1)c2Nc1ccccc1 (single isomer, unassigned) [Example 2, N-{4-[3-anilino-7-ethyl-4-oxo-4,5,6,7-tetrahydro-1H-pyrrolo[3,2-c]pyridin-2-yl]pyridin-2-yl}-2-(4-fluorophenyl)acetamide] | 3.3 | 5.2
10 | Cn1cc(CC(F)(F)F)c2[nH]c(-c3ccnc(NC(=O)Cc4ccc(F)cc4)c3)c(Nc3ccccc3)c2c1=O [Example 34, N-{4-[3-anilino-5-methyl-4-oxo-7-(2,2,2-trifluoroethyl)-4,5-dihydro-1H-pyrrolo[3,2-c]pyridin-2-yl]pyridin-2-yl}-2-(4-fluorophenyl)acetamide] | 4.3 | 9.1
11 | CN1CC(CC(F)(F)F)c2[nH]c(-c3ccnc(NC(=O)C(CC(F)F)c4ccc(F)cc4)c3)c(Nc3cscn3)c2C1=O (single isomer, unassigned) [Example 53, (2R or S)-4,4-difluoro-2-(4-fluorophenyl)-N-{4-[(7R or S)-5-methyl-4-oxo-3-[(1,3-thiazol-4-yl)amino]-7-(2,2,2-trifluoroethyl)-4,5,6,7-tetrahydro-1H-pyrrolo[3,2-c]pyridin-2-yl]pyridin-2-yl}butanamide] | 21 | 35
12 | CC1CN(C)C(=O)c2c1[nH]c(-c1ccnc(NC(=O)Cc3ccc(F)cc3)c1)c2Nc1ccccc1 (racemic) [Example 6, N-{4-[3-anilino-5,7-dimethyl-4-oxo-4,5,6,7-tetrahydro-1H-pyrrolo[3,2-c]pyridin-2-yl]pyridin-2-yl}-2-(4-fluorophenyl)acetamide] | 2.6 | 6.5
13 | Cc1cn(C)c(=O)c2c(Nc3ccccc3)c(-c3ccnc(NC(=O)C(C)c4ccc(F)cc4)c3)[nH]c12 (single isomer, unassigned) [Example 41, N-[4-(3-anilino-5,7-dimethyl-4-oxo-4,5-dihydro-1H-pyrrolo[3,2-c]pyridin-2-yl)pyridin-2-yl]-2-(4-fluorophenyl)propanamide] | 100 | 88
14 | Cn1ccc2[nH]c(-c3ccnc(NC(=O)C(CC(F)F)c4ccc(F)cc4)c3)c(Nc3ccccc3)c2c1=O (racemic) [Example 28, N-[4-(3-anilino-5-methyl-4-oxo-4,5-dihydro-1H-pyrrolo[3,2-c]pyridin-2-yl)pyridin-2-yl]-4,4-difluoro-2-(4-fluorophenyl)butanamide] | 5.2 | 8.1
